Test results: BindingDB's records for patent US20230365537 (Oric Pharmaceuticals, 2023)
pIC50: −log10 of the molar value. Values joined by “and” are separate entries in the source; they are usually repeats but may differ in a detail not shown here. Equal values may be shown once.

How the values were obtained:
[1] = molecular target: T1, Serine/threonine-protein kinase PLK4 (Homo sapiens, UniProt O00444); assay: PLK4 Biochemical Assay
T1 sequence (O00444 whole entry): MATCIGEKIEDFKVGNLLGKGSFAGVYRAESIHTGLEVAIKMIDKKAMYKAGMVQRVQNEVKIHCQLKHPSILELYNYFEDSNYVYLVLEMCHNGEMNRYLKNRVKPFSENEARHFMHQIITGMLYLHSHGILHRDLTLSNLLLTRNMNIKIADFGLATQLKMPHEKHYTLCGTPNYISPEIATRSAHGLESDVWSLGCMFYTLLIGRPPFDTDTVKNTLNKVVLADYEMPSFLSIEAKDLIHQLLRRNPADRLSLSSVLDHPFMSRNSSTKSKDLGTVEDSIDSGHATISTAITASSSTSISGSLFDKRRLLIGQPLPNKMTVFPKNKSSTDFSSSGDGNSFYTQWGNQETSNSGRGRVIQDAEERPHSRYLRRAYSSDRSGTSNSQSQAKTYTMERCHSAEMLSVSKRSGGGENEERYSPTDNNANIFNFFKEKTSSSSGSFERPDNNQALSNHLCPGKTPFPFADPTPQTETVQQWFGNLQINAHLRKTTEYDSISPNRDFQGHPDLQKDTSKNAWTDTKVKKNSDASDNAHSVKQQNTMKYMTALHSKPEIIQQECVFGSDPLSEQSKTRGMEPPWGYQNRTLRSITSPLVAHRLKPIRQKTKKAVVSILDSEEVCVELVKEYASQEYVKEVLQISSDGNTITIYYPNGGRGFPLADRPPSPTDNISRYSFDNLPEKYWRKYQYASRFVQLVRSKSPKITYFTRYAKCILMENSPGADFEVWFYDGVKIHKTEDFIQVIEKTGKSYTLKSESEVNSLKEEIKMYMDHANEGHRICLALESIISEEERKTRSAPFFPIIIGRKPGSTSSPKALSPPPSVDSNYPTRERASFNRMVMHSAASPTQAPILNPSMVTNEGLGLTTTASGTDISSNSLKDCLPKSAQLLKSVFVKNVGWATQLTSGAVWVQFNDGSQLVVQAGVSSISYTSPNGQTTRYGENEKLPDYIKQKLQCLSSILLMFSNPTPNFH
Method: (§1) Activity of human recombinant PLK4 (ThermoFisher, cat #PV6396) was measured by quantification of adenosine diphosphate (ADP) using the ADP-Glo Kinase Assay Kit (Promega, cat #V9102). […] 5 µL of 1.0 nM PLK4 protein in assay buffer (50 mM HEPES, pH 7.5, 0.01% Brij-35, 0.01% BSA, 10 mM MgCl2, 1 mM EGTA, 1 mM DTT) was added to the plates. Test compounds and PLK4 were incubated for 15 minutes at room temperature (RT). […] Reactions were stopped and the remaining ATP depleted by adding 10 µL of ADP-Glo reagent (Promega, cat#V912B) and incubating for 40 minutes at RT. The simultaneous conversion of the remaining ADP to ATP and measurement of the newly synthesized ATP was achieved by addition of 20 µL Kinase Detection reagent (Promega, cat #V914B), incubation for 30 min at RT, and luminescence detection using the EnVision plate reader (PerkinElmer). […] The IC50 values reported in Table 2 were determined using four parameter non-linear regression curve fit.

[2] = molecular target: Aurora kinase B (Homo sapiens, UniProt Q96GD4); assay: Aurora B Kinase Biochemical Assay
Chain of Aurora kinase B (Q96GD4 whole entry): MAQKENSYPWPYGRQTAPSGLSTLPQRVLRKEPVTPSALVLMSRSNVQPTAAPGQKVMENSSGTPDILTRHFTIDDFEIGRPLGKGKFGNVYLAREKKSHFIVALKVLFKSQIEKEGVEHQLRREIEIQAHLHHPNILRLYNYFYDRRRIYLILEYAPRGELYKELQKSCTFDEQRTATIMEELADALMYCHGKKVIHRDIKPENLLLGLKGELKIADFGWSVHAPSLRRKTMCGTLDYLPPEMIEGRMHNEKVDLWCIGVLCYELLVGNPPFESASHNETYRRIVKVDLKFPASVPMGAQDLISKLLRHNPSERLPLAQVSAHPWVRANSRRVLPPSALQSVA
Method: as §1, with “Aurora B” for “PLK4”, “#PR9210B)” for “#PV6396)”, “20” for “1.0”, “Aurora B” for “PLK4 protein”, “10uL” for “10 µL”, “parameter” for “parameter non-linear regression curve fit.”

[3] = molecular target: T2, Aurora kinase A (Homo sapiens, UniProt O14965); assay: Aurora A Kinase Biochemical Assay
T2 sequence (O14965 whole entry): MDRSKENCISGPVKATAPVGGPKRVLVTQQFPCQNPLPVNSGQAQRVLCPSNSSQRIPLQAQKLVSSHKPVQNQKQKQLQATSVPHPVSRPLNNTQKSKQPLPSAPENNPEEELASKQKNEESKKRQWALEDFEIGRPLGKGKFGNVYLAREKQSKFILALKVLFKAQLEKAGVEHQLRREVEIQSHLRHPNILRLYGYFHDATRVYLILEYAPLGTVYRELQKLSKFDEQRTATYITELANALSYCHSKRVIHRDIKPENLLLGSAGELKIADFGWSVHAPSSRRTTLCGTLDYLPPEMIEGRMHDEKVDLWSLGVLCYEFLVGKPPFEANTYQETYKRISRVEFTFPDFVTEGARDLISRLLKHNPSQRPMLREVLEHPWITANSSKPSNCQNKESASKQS
Method: as §1, with “Aurora A” for “PLK4”, “#PR5935A)” for “#PV6396)”, “5.0” for “1.0”, “Aurora A” for “PLK4 protein”, “10uL” for “10 µL”

## COc1ccc2c(c1)[C@]1(C[C@H]1c1ccc3c(Nc4cc(S(=O)(=O)C5CCOCC5)ccc4OC)n[nH]c3c1)C(=O)N2 [US20230365537, Example 224]
[1]
  pIC50: 8.40

## COc1ccc2c(c1)[C@]1(C[C@H]1c1ccc3c(Nc4cc(N5CCN(C)C5=O)cnc4OC)n[nH]c3c1)C(=O)N2 [US20230365537, Example 221]
[1]
  pIC50: 8.55

## COc1ccc2c(c1)[C@]1(C[C@H]1c1ccc3c(Nc4ccc(S(C)(=O)=O)nc4OC)n[nH]c3c1)C(=O)N2 [US20230365537, Example 168]
[2]
  pIC50: 6.28 and 5.98
[3]
  pIC50: 5.73 and 5.69
